Positions of bridges follow the written chain, without caps; N, C: chain ends. Residues, ends and D or L forms follow the SMILES beside them.
What was measured:
[1] = Resistance to breakdown by serum proteases; format: in vitro ADME; details: human, 25% (v/v) human serum in PBS
P. falciparum 3D7 = experiment: In vitro growth inhibition of P. falciparum 3D7; format: cell-based, Plasmodium falciparum; details: HC10 of uninfected RBCs relative to Pf IC50 with 5 mg/mL Albumax II supplement

SMILES: CC[C@H](C)[C@@H]1NC(=O)[C@H](CCCCN)NC(=O)[C@H](CCCCN)NC(=O)[C@H](Cc2ccc(O)cc2)NC(=O)[C@H](CC(C)C)NC(=O)[C@@H]2CCCN2C(=O)[C@H](C)NC(=O)CNC(=O)CNC(=O)[C@H](CO)NC(=O)CNC(=O)CNC(=O)[C@H](CO)NC(=O)[C@H](CCCCN)NC(=O)[C@H](CC(C)C)NC(=O)[C@H](CC(C)C)NC(=O)[C@H](CCCCN)NC(=O)[C@H](CCCCN)NC(=O)[C@H]([C@@H](C)CC)NC(=O)[C@H]([C@@H](C)CC)NC(=O)[C@H](CCCCN)NC(=O)[C@H](CCCCN)NC(=O)[C@H](Cc2ccc(O)cc2)NC(=O)[C@H](CC(C)C)NC(=O)[C@@H]2CCCN2C(=O)CNC(=O)CNC(=O)[C@@H](NC(=O)CN)CSSC[C@@H](C(N)=O)NC(=O)[C@H](CC(C)C)NC(=O)[C@H](CCCCN)NC(=O)[C@H](CCCCN)NC(=O)[C@H]([C@@H](C)CC)NC1=O [Peptide 10] (H-GCGGPLYKKIIKKLLKSGGSGGAPLYKKIIKKLC-NH2; disulfide 2-34; N-terminus assumed)
- remaining at 24 h, 50 μM [1]: 0%
- Activity-hemolysis index RBC HC10/ Pf IC50 (P. falciparum 3D7): 6.5 ± 1.2
